Results: US6787569B1, “Therapeutic guanidines” (Cambridge NeuroScience, Inc., priority 1994, dated 2004)
Where a name gives a salt, the structure may show the parent alone.

Columns and labels:
presynaptic Ca channels = experiment: Inhibition of 45Ca uptake through presynaptic Ca channels in brain synaptosomes; type: biochemical, mammalian; conditions: high K+ depolarization-induced 45Ca uptake, read-out: IC50, block of ^45Ca uptake
Procedure: Compounds of the invention were tested to determine their ability to inhibit voltage-activated calcium channels in nerve terminals of mammalian brain. Said voltage-activated calcium channels directly control neurotransmitter release (see Nachsen, D. A. et al., J. Gen Physiol., 79:1065-1087 (1982)). The uptake of ^45Ca into brain synaptosomes was performed by an adaptation of the method of Nachsen and Blaustein (J. Physiol., 361:251-258 (1985)), as previously described [Goldin et al., PCT/US92/01050]. The principle of the method involves opening ion permeation through synaptosomal calcium channels by high K^+-induced depolarization of the synaptosomal preparation. The rapid component of ^45Ca uptake measured by this procedure is mediated by presynaptic calcium channels.
Briefly, synaptosomes are prepared by the method of Hajos (Brain Res., 93:485-489 (1975)). Freshly prepared synaptosomes (8 μl) were suspended In low potassium “LK” buffer (containing 3 mM KCl). Test compounds in 8 μl LK were added to synaptosomes to final concentrations ranging from 0.3 μM to 100 μM, and the mixture was preincubated for 5 minutes at room temperature. ^45Ca uptake was then initiated by adding isotope in either LK or in buffer (“HK”) containing high [potassium] (150 mM KCl). After 5 seconds, the ^45Ca uptake was stopped by adding 0.9 ml quench buffer (LK+10 mM EGTA). This solution was then filtered under vacuum and the filters washed with 15 ml of quench buffer.
Washed filters were subjected to scintillation spectrophotometry to determine the extent of ^45Ca uptake. Net depolarization-induced ^45Ca uptake was determined for each concentration of each compound tested, as the difference between ^45Ca uptake in HK and LK buffers. Results were plotted as % inhibition of depolarization-induced ^45Ca uptake vs. [compound] for each compound tested. Representative IC50 for inhibition of depolarization-induced ^45Ca uptake are presented below in the tables (2a-2d) below which together are identified as Table 2.

L-type Ca channels = experiment: Inhibition of 45Ca uptake through L-type (dihydropyridine-sensitive) calcium channels in GH4C1 pituitary cells; type: cell-based; conditions: high K+ depolarization-induced 45Ca uptake, read-out: IC50, block of ^45Ca uptake
Procedure: Compounds of the invention representative of each of the major classes of agents claimed herein were tested to determine their ability to inhibit voltage-activated, dihydropyridine-sensitive L-type calcium channels in clonal GH4C1 pituitary cells. Said voltage-activated L-type calcium channels are found in cardiac muscle, vascular smooth muscle, and the cardiac Purkije cell conduction system. They are the sites of action of the major classes of Ca antagonists employed to treat hypertension, angina, cardiac arrhythmias, and related disorders. L-type Ca channels are also the sites of action of certain neuroprotective dihydropyridine Ca antagonists such as nimodipine.
The uptake of ^45Ca into GH4C1 cells was performed by an adaptation of the method of Tan, K. et al. (J. Biol. Chem., 259:418-426 (1984)). The principle of the method involves activating ion permeation through synaptosomal calcium channels by high K^+-induced depolarization of the synaptosomal preparation. The uptake of ^45Ca measured by this procedure is mediated by presynaptic L-type calcium channels, and is sensitive to dihydropyridine, phenylalkylamine, and benzothiazipine Ca antagonists at therapeutically relevant concentrations [Tashjian et al., ibid.]. The adaptation of the aforementioned method involves growing GH4C1 cells in 96-well culture plates, and is designed to provide a rapid and quantitative determination of the potency of various compounds in inhibiting ^45Ca uptake through L-type Ca channels.
GH4 cells, stored in liquid nitrogen, are suspended in 15 ml growth medium (Ham's F-10 medium plus 15% heat-inactivated horse serum and 2.5% heat-inactivated fetal bovine serum). The cells are centrifuged, resuspended, and then added to T-75 flasks containing 12-15 mls Growth Medium, and incubated at 37° C. for approximately 1 week. The cells are them removed from the T75 flask after dissociation from the walls of the flask by treatment for 5 minutes at 37° C. with 1 mg/ml Viocase. The Viocase is decanted, and the cells are resuspended in ˜200 ml of Growth Medium. The cells are then aliquoted (200 μl/well) into each well of several 96 well plates. The cells are then grown under the aforementioned conditions for 3-4 weeks, with replacement of Growth Medium occurring twice per week. Cells are fed growth medium 24 hours before they are employed for ^45Ca uptake determinations.
At the time of the assay, media Is aspirated from each 96-well plate using a manifold designed to allow 50 μL of liquid to remain in each well. Each plate is washed and aspirated twice with a low K^+ buffer solution “LKHBBS” (in mM 5 KCl, 145 NaCl, 10 Hepes, 1 MgCl2, […], 10 glucose, pH 7.4), 200 μl/well. Each plate is incubated for 10 minutes at 37° C., and aspirated as above. To each well of each plate, 50 μl of HBBS containing the drug to be tested in twice the final concentration is added. The plates are incubated for 10 minutes at room temperature. To each well of each plate, 50 μl of either of two solutions are added:
(a) LKHBBS containing 1 μCi of carrier-free ^45Ca, or
(b) HKHBBS (a high K^+ buffer containing 150 mM KCl and no NaCl, but otherwise identical to LKHBBS).
Each plate is then incubated for 5 minutes at room temperature, aspirated as above, and quenched with 200 μl/well of Quench Buffer (Ca-free LKHBBS containing 10 mM Tris-EGTA). Each plate is aspirated and rinsed with Quench Buffer a second time, then carefully aspirated to dryness. To each well of each plate 100 μl of High Safe II scintillation fluid is added. The plates are sealed, shaken, and subjected to scintillation spectrophotometry on a Microbeta 96-well Scintillation Counter (Wallac, Gaithersburg, Md., USA).
Net depolarization-induced ^45Ca uptake was determined for each concentration of each compound tested, as the difference between ^45Ca uptake in HKBBS and LK buffers. Results were plotted as % inhibition of depolarization-induced ^45Ca uptake vs. [compound] for each compound tested.

[1] = tested on: depolarization-induced 3H-glutamate release from brain nerve terminals; experiment: Inhibition of 3H-glutamate release, high [K+] depolarization, rapid superfusion of synaptosomes; type: biochemical; conditions: 3 μM compound, rat brain synaptosomes
[2] = target: Type II neuronal voltage-activated sodium channels (Rattus norvegicus, UniProt P04775); experiment: cell-based
[3] = tested on: audiogenic seizures in DBA/2 mice; experiment: In vivo anticonvulsant activity in the DBA/2 mouse model (audiogenic seizures); conditions: 30 minutes prior to auditory stimulus
Procedure: Compounds were tested for their effectiveness in preventing seizures in DBA/2 mice which have a unique sensitivity to auditory stimulation. Exposure to loud high-frequency sounds can trigger seizure activity in these animals. This sensitivity develops from postnatal day 12 and peaks around day 21 and slowly diminishes as the animals mature. The unusual response to auditory stimulation in this strain of mouse is believed to be due to a combination of early myelination (causing an unusually low excitatory threshold) and delayed development of inhibitory mechanisms. Glutamate, the predominant excitatory neurotransmitter, has been implicated in this response. Blockade of glutamate receptors of the NMDA and AMPA subtypes, prevents audiogenic seizures in these mice. Compounds that block the release of glutamate should similarly act to prevent seizure activity, and may be therapeutic in other neurologic disorders such as stroke, which also involves glutamate-mediated damage.
Mice were injected intraperitoneally with the compound specified in Table V below or with vehicle control, 30 minutes prior to being placed in a bell jar and turning on the auditory stimulus (12 KHz sine wave at 110-120 db). Administered doses are specified in Table V as milligram of compound per kilogram bodyweight of mouse. The auditory stimulus was left on for 60 seconds and mice reactions were timed and recorded.
Percentage inhibition was determined with reference to vehicle controls.

[4] = tested on: veratridine-induced 3H-glutamate release from brain nerve terminals (voltage-activated presynaptic Na channels); experiment: Inhibition of veratridine-induced 3H-glutamate release, rapid superfusion of synaptosomes; type: biochemical, rat; conditions: 1 μM compound; 50 μM veratridine-induced release; rat brain synaptosomes

Chain of Type II neuronal voltage-activated sodium channels (P04775 whole entry): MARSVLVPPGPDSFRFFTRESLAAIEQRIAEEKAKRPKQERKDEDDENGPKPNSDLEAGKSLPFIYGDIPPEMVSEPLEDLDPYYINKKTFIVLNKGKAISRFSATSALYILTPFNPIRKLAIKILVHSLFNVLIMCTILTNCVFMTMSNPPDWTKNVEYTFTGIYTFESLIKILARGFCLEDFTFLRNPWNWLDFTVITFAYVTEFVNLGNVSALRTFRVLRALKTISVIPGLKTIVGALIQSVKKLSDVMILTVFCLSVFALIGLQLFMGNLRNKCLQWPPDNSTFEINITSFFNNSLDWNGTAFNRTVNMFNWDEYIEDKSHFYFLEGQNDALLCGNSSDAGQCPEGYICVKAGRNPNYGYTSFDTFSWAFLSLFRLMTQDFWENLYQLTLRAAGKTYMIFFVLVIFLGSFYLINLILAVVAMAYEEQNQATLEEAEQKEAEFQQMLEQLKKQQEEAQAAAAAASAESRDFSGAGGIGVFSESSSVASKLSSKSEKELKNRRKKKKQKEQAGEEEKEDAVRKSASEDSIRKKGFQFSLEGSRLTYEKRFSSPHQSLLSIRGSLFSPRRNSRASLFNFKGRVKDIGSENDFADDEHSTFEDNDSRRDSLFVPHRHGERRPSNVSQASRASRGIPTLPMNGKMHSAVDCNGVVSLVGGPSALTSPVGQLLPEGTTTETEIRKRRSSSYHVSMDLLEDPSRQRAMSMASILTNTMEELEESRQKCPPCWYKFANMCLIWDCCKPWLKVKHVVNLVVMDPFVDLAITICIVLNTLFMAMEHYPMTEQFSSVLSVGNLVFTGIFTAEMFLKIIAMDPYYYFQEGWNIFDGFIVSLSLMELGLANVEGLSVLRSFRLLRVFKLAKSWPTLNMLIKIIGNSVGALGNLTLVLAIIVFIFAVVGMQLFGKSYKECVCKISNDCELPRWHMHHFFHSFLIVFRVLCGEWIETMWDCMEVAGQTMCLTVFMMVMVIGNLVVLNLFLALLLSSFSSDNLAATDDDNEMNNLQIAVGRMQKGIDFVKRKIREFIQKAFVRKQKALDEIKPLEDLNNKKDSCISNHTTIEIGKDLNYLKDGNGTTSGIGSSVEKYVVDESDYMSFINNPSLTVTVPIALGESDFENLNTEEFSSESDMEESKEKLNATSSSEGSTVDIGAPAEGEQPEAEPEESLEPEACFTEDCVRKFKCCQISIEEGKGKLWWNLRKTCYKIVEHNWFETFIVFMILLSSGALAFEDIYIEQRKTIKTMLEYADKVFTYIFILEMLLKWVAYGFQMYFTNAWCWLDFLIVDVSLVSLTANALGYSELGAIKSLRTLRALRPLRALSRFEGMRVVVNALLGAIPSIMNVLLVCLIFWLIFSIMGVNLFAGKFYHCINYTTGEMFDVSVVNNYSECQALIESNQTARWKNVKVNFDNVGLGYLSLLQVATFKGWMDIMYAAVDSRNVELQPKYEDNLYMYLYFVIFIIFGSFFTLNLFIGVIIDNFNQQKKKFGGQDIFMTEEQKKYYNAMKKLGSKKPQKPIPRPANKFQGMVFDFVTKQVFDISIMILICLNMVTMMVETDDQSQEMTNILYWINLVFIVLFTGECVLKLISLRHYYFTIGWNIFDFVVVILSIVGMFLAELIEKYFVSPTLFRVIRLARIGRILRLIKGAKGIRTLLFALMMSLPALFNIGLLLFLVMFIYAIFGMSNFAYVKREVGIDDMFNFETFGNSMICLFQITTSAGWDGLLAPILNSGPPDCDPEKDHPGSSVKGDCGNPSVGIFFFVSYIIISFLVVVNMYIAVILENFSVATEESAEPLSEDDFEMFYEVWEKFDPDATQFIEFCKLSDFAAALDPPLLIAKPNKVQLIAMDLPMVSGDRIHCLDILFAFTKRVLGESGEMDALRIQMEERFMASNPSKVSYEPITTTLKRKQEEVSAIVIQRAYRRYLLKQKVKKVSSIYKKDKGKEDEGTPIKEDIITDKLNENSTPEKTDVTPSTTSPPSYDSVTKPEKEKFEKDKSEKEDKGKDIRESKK

## CCC(C)c1ccc(N(Cc2ccc(C(C)(C)C)cc2)C(=N)N)cc1 (centres unmarked) [Example 1, N-(4-sec-Butylphenyl)-N-(4-tert-butylbenzyl)guanidine.HCl]
Presynaptic Ca channels
  IC50: 6.1 µM
L-type Ca channels
  IC50: 1700 nM
[1]
  % Inhibition of ^3H-Glu Rel @ 3 μM: 61%
[2]
  IC50: 800 nM
[3]; 10 mg/kg intraperitoneally
  Audiogenic Response % Inhib.: 54%
[3]; 20 mg/kg intraperitoneally
  Audiogenic Response % Inhib.: 80.5%
[3]; 40 mg/kg intraperitoneally
  Audiogenic Response % Inhib.: 91%
[4]
  % Inhibition of ^3H-Glu Rel @ 1 μM (*veratridine-induced glutamate release assay): 67* %
